Patent US11787850B2, “Peptidic TGF-beta antagonists” (priority 2015, dated 2023)

Columns and labels:
[1] = system: TGF-β-induced migration of HaCaT cells; assay: Scratch assay in HaCaT cells with pathway inhibitors; assay type: cell-based, human; conditions: 100 pM TGF-β1, 36 hrs; 0.5 μM SB431542, 1 μM SB203580, 10 μM U0126
Method: (FIG. 18A) HaCaT cells transfected with control or CD109 siRNA were scratched and treated with or without 100 pM TGF-β1, 0.5 μM SB431542, 1 μM SB203580 and/or 10 μM U0126 for 36 hrs. Dotted line: wound margin at 0 hr, regular line: wound margin at 36 hrs.
Confluent monolayers of HaCaT or A431 cells were wounded by scrapping the cells with a 200 μl pipette tip. Cells were then incubated with 100 pM TGF-β1, in presence or absence of 10 μM U0126, 1 μM SB203580, 0.5 μM SB431542 in serum free medium for 24-48 hrs. Pictures were taken at the same spot at 0 hr, 24 hrs and 48 hrs. The cell-free area (wound) area was measured using ImageJ™ software and the percentage of original wound area filled with keratinocytes was calculated. At least 3 independents series of experiments were performed in triplicates.
Finally, it was determined whether CD109's effect on migration was also mediated by the SMAD2/3 and MAPK pathways.

[2] = system: TGF-β-induced EMT in HaCaT cells; assay: Immunofluorescence of F-actin and E-cadherin in HaCaT cells with pathway inhibitors; assay type: cell-based, human; conditions: for effect mediated by CD109 siRNA transfection on actin stress fibers appearance and relocalization of E-cadherin / effect on EMT markers in the absence of TGF-β: 0.5 μM SB431542, 1 μM SB203580, 10 μM U0126; for effect on EMT markers in the absence of TGF-β: data not shown
[3] = system: TGF-β-induced fibronectin and Slug expression in HaCaT cells; assay: Western blot for fibronectin and Slug in HaCaT cells with pathway inhibitors; assay type: cell-based, human; conditions: for effect of CD109 knock-down on TGF-β-induced Slug expression: 100 pM TGF-β1, 4 hrs, 0.5 μM SB431542, 10 μM U0126; for fibronectin production: CD109 siRNA HaCaT cells, 100 pM TGF-β1, 16 hrs, 0.5 μM SB431542, 1 μM SB203580, 10 μM U0126
[4] = system: TGF-β-induced epithelial-mesenchymal transition (EMT) response in squamous cell carcinoma (A431) cells; assay: Immunoblot of EMT markers in A431 cells; assay type: cell-based; conditions: 10 nM peptide, 100 pM TGF-b, 24 hrs (FIG. 33)
Method: (FIG. 26A) Immunoblot analysis was carried out using cell lysates of A431 cells following incubation with TGF-β, P16, or scrambled control (P16.2) as indicated to determine expression of proteins involved in the EMT response. (FIG. 26B) Densitometry analysis was subsequently performed using the developed immunoblot to illustrate the relative expression of each protein as a function as P16 concentration as indicated.
A431 cancer cells treated with 10 nM of P16.2 (negative peptide control), P12, P16 or PA in the absence or presence of 100 pM TGF-b, followed by 24 hrs of incubation. Cells lysates were analyzed by Western blot for the expression of Fibronectin (mesenchymal marker), Snail and Twist (EMT markers). Actin expression was used as loading control.

[5] = system: TGF-β-induced migration of squamous cell carcinoma (A431) cells; assay: Scratch (wound closure) migration assay, A431 cells; assay type: cell-based; conditions: 10 nM peptide, 100 pM TGF-β1, 24 hours (FIG. 10)
Method: FIG. 10A and FIG. 10B illustrate that peptides B, E and X-1 inhibit TGF-β-induced cellular migration of A431 cells in vitro. Results are shown prior to treatment (0 hr, top panels) and after treatment (24 hr, bottom panels) for each of the peptides used. (See FIG. 2 and Table 1 for the amino acid sequence identity of the peptides).
A431 cells were grown to 80-90% confluence and serum-starved overnight. The next day, cells were scratched with a plastic pipette tip (time 0 hour) and then left untreated or treated for 24 hours with 100 pM TGF-β1 alone or in the presence of P16 as indicated. (FIG. 27A) Digital images were captured at 0 h and 24 h using an EVOS XL Core microscope. (FIG. 27B) Micrographs were subsequently quantitated to determine the percentage of the wound area that had closed following 24 hours in the presence or absence of P16, as indicated.
Cells were scratched with a pipette tip and treated without or with 100 pM TGF-b1 alone or in the presence of 10 nM Peptide A or Peptide A1 (C31S mutant). Pictures were taken at 0 and 24 hrs. Peptide A but not Peptide A1 inhibits TGF-b-induced migration in A431 cells. Peptide A contains monomeric and dimeric forms whereas Peptide A1 contains a C31S mutation to prevent intermolecular disulfide bond formation so that it forms monomers only.
(§1) Squamous cell carcinoma (A431) or breast cancer (MDA-MB-231) cells were grown to 80-90% confluence and serum-starved overnight. The next day, cells were scratched with a plastic pipette tip (time 0 hour) and then left untreated or treated for 24 hours with 100 pM TGF-β1 alone or in the presence of 10 nM peptide B (100 aa), E (67 aa), or X1 (P28, 28 aa). Digital images were captured at 0 h and 24 h (20× magnification) using an EVOS XL Core microscope.

[6] = Size-exclusion chromatography on Superdex Peptide 10/300GL column; assay type: physicochemical
Method: Approximately 200 μg of each peptide X (40 amino acids), X-1 (28 amino acids), peptide A (161 amino acids), P11 (11 amino acids), P16 (16 amino acids), P21 (21 amino acids, P16-2 (16 amino acids, scrambled sequence control), X-3 (16 amino acids) and X-4 (11 amino acids) were dissolved in phosphate-buffered saline (PBS) and loaded onto a Superdex Peptide 10/300GL column. The column was eluted with PBS at a flow rate of 0.6 mL/min and eluents were analyzed for peptide content by measuring relative absorbance at a wavelength of 215 nm. (FIGS. 3A and 3B) The data is plotted with relative absorbance (Y-axis) against elution volume (X-axis). Peptides 1-9 are color coded (A—peptides (1) to (5); B (peptides (6) to (9)). As shown on panel A, peptide X (peptide 1, black line) elution profile indicated two major peaks at approximately 8 mL and 11 mL which correspond to molecular weights greater than 12.4 kDa. The theoretical molecular weight of peptide X is 4.7 kDa which is expected to elute from the column at approximately 15 mL. Under the conditions tested, peptide X existed as high molecular weight aggregates with minimal soluble (monomeric) form. On the other hand, P16 (peptide 5, green line) elution profile indicated a broad peak between 14-22 mL which is expected to contain peptides of between 0.1 and 6 kDa and is consistent with its theoretical molecular weight of 2.01 kDa.
FIG. 4 illustrates the standard curve used for size-exclusion chromatography of standard peptides using the Superdex Peptide 10/300 GL column (results provided in FIG. 3). A pool of standard peptides of various molecular weights (1. cytochrome c (Mr 12.384 kDa) 1 mg/mL; 2. aprotinin (Mr 6.512 kDa) 2 mg/mL; 3. vitamin B12 (Mr 1.355 kDa) 0.1 mg/mL; 4. (Gly)3 (Mr 0.189 kDa) 0.1 mg/mL; 5. Gly (Mr 0.075 kDa) 7.8 mg/mL) were subjected to size-exclusion chromatography using the Superdex Peptide 10/300 GL column (flow rate 0.5 ml/min at room temperature, sample volume of 50 μL, eluent 0.05M phosphate, 0.15 M NaCl, ph 7.0). The resulting chromatogram (absorbance at 215 nm (in mAU, left Y axis) and conductivity (in mS/cm, right Y axis, in function of volume of elution (in mL)) indicates the elution profiles of the above peptides with high MW peptides eluting in earlier fractions and lower MW peptides eluting in later fractions as expected. The molecular weights of peptides were plotted against elution volume generating a standard curve (not shown).
More specifically, approximately […] of each peptide X (40 amino acids), X-1 (28 amino acids), peptide A (161 amino acids), P11 (11 amino acids), P16 (16 amino acids), P21 (21 amino acids, P16-2 (16 amino acids, scrambled sequence control), X-3 (16 amino acids) and X-4 (11 amino acids) were dissolved in phosphate-buffered saline (PBS) and loaded onto a Superdex Peptide 10/300GL column. The column was eluted with PBS at a flow rate of 0.6 ml/min and eluants were analyzed for peptide content by measuring relative absorbance at a wavelength of 215 nm. The data were plotted with relative absorbance (Y-axis) against elution volume (X-axis). […] The theoretical molecular weight of peptide X is 4.7 kDa which is expected to elute from the column at approximately 15 mL. […] P16 (peptide 5) elution profile indicated a peak between 14-22 mL which was expected to contain peptides of between 0.1 and 6 kDa and is consistent with its theoretical molecular weight of 2.01 kDa.
More specifically, a pool of standard proteins of various molecular weights were subjected to size-exclusion chromatography using the Superdex Peptide 10/300 GL column. The resulting chromatogram indicated the elution profiles of the peptides with high molecular weight peptides eluting in earlier fractions and lower molecular weight peptides eluting in later fractions as expected. The molecular weights of peptides were plotted against elution volume generating a standard curve (not shown) and was used to calculate molecular weights of the CD109-based peptides. […]

[7] = system: TGF-β-induced migration of breast cancer (MDA-MB-231) cells; assay: Scratch migration assay, MDA-MB-231 cells; assay type: cell-based; conditions: 10 nM peptide, 100 pM TGF-β1, 24 hours (FIG. 11)
Method: FIG. 11A and FIG. 11B illustrate that peptides B, E and X-1 inhibit TGF-β-induced cellular migration of MDA-MB-231 cells in vitro. Results are shown prior to treatment (0 hr, top panels) and after treatment (24 hr, bottom panels) for each of the peptides used.
as §1

[8] = system: TGF-β1-induced Smad3-driven (CAGA12-lux) transcriptional activity; assay: Luciferase reporter assay in HEK293-(CAGA)12 cells; assay type: cell-based; conditions: 10 nM or 5 nM peptide, 100 pM TGF-β1, 18 hours (FIG. 5)

Molecule	effect mediated by CD109 siRNA transfection on actin stress fibers appearance and relocalization of E-cadherin ([2]; 100 pM TGF-β1, 36 hrs)	effect on EMT markers in the absence of TGF-β [2]	fibronectin production [3]	inhibition of TGF-β-induced cellular migration of A431 cells [5]	inhibition of TGF-β-induced cellular migration of MDA-MB-231 cells [7]	other results
N#CC(=C(/N)Sc1ccccc1N)/C(C#N)=C(\N)Sc1ccccc1N [Peptide U0126, U0126]	reduces (but does not abrogate)	no effect	reduced			increase of TGF-β-induced cell migration by CD109 knock-down [1]: partially reversed; effect of CD109 knock-down on TGF-β-induced Slug expression [3]: abrogated
C[S+]([O-])c1ccc(-c2nc(-c3ccncc3)c(-c3ccc(F)cc3)[nH]2)cc1 (stereo not shown) [SB203580]	reduces (but does not abrogate)	no effect	reduced			Slug expression ([3]; control siRNA and CD109 siRNA HaCaT cells, absence or presence of TGF-β, 1 μM SB203580): increases
NC(=O)c1ccc(-c2nc(-c3ccc4c(c3)OCO4)c(-c3ccccn3)[nH]2)cc1 [SB431542]	reduces (but does not abrogate)	no effect	totally abrogated			increase of TGF-β-induced cell migration by CD109 knock-down [1]: partially reversed; appearance of actin stress fibers in control siRNA transfected cells ([2]; 100 pM TGF-β1, 36 hrs, 0.5 μM SB431542): totally prevents; effect of CD109 knock-down on TGF-β-induced Slug expression [3]: abrogated
ETWIWLDTNMGS [Peptide P12]						inhibition of TGF-b induced EMT response (Fibronectin, Snail, Twist) [4]: not
ETWIWLDTNMGSRIYQEFEVTVPDSITS (Peptide X-1)				inhibit	inhibit	formation of aggregates by size-exclusion chromatography ([6]; peptide in PBS, Superdex Peptide 10/300GL, 0.6 ml/min): formed aggregates; Aggregation? ([6]; size-exclusion chromatography, peptide dissolved in PBS): Aggregated; inhibition of TGF-β1-induced CAGA12-lux activity [8]: inhibited
B: CD109-based peptide (100 aa), SEQ ID NO: 19 (protein, Peptide B) TMENVVHELELYNTGYYLGMFMNSFAVFQECGLWVLTDANLTKDYIDGVYDNAEYAERFMEENEGHIVDIHDFSLGSSPHVRKHFPETWIWLDTNMGSRIYQEFEVT				inhibit	inhibit	
E: CD109-based peptide (67 aa), SEQ ID NO: 20 (protein, Peptide E) LTKDYIDGVYDNAEYAERFMEENEGHIVDIHDFSLGSSPHVRKHFPETWIWLDTNMGSRIYQEFEVTV				inhibit	inhibit	
